Test [1] addresses T1, KCNJ5 WT homotetramers in 293T cells (Homo sapiens, UniProt P48544).
T1 construct: host or cells: 293T
T1 sequence (P48544 1-419): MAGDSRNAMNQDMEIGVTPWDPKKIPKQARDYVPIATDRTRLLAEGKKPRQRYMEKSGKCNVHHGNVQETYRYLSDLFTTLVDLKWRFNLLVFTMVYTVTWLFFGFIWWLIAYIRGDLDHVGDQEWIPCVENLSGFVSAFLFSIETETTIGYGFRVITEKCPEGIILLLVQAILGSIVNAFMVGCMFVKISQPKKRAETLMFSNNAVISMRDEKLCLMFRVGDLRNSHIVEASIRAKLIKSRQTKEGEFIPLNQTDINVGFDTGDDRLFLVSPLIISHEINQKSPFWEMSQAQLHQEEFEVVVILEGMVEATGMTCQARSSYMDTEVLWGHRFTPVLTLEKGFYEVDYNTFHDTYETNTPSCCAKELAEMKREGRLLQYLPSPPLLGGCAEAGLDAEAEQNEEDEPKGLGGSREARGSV
The experiment in a line: Whole-cell patch clamp of KCNJ5 homotetramers, Ba2+ block. In kind it is cell-based. The note with it: 1 mM BaCl2 in extracellular fluid, symmetric high K+ solutions. How it is done:
Because of low current amplitude of homotetrameric channels, currents were measured under symmetrical high Na+ or high K+ conditions, which increases current amplitude (Owen et al., 1999, Exp Physiol 84:471-488; Andreoli, et al., Eds., Molecular Biology of Membrane Transport Disorders (Plenum Press, New York, ed. 2, 1996), chap. 5) (FIGS. 13A-13D); reversal potentials and permeability ratios were determined using physiological solutions (FIGS. 13E, 13F). (FIG. 13A) Representative whole-cell recordings showing K+ and Na+ currents in 293T cells transfected with KCNJ5, KCNJ5G151R, KCNJ5L168R, and KCNJ5T158A. […] (FIGS. 13B, 13C) Current-voltage relationships from cells expressing the indicated constructs with symmetric high K+ or high Na+ solutions as in FIG. 13A. […] Relative permeabilities of K+:Na+ were determined in physiologic solutions as described in FIG. 13E. (FIG. 13E) Reversal potential of 293T cells transfected with WT or mutant KCNJ5 using physiological solutions. […] The reversal potential for the homotetramers was determined by a ramp protocol ranging from −100 to +100 mV after forming a high resistance seal. […]
To analyze homomeric wild-type or mutant KCNJ5 currents, 1 μg of cDNA was transfected. […] For each construct, currents were measured in two conditions. […] The reversal potential was determined using a ramp protocol ranging from −100 to +100 mV after forming a high resistance seal. […]
(In general: Patch clamp records ionic current or voltage across a cell membrane.)

Test [2] addresses T2, KCNJ3/KCNJ5WT in 293T cells (Homo sapiens, UniProt P48544+P48549).
T2 construct: #SC118769 (KCNJ3); host or cells: 293T
T2 sequence (P48544 1-419): T1 sequence (P48544 1-419)
T2 sequence (P48549 1-501): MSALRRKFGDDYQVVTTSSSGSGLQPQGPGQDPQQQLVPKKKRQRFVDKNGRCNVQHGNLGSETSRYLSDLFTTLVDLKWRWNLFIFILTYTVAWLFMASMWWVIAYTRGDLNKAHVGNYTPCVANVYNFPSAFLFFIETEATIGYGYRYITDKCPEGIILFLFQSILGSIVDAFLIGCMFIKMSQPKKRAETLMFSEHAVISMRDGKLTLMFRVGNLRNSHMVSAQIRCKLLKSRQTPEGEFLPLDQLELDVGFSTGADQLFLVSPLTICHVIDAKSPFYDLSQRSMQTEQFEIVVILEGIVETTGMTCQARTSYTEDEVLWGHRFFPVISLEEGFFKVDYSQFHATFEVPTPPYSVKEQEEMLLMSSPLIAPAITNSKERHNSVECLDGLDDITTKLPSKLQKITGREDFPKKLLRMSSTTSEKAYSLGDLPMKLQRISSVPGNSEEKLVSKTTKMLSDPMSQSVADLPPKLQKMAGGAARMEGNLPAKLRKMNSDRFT
The experiment in a line: Whole-cell patch clamp of KCNJ3/KCNJ5 heterotetramers, Ba2+ block. In kind it is cell-based. The following applies: 1 mM BaCl2 in extracellular solution; listed as Ba2+. How it is done:
(§1) FIG. 3A depicts the results of representative whole-cell recordings of 293T cells transfected with empty vector or KCNJ3 plus WT or mutant KCNJ5. […] Middle row: 1 mM BaCl2 was added. Bottom row: 140 mM choline chloride was substituted for extracellular NaCl. FIG. 3B depicts the current-voltage relationships from cells expressing indicated constructs (n=3 to 7 for each construct). Reversal potentials in control conditions are indicated. […] FIG. 3C depicts that the K+:Na+ permeability ratios calculated from the reversal potentials show loss of ion selectivity of the mutant channels. Data in FIGS. 3B and 3C are shown as mean±SEM.
(§2) Empty vector was used as a control. Cells were examined one day after transient transfection.
(§3) 1 mM BaCl2 was used to block Kir channels. […] All data are shown as mean±SEM.

Test [3] concerns the target T3, KCNJ3/KCNJ5G151R in 293T cells (Homo sapiens, UniProt P48544+P48549, G151R).
T3 construct: #SC118769 (KCNJ3); host or cells: 293T
T3 sequence (P48544 1-419 G151R): T1 sequence (P48544 1-419) with G151R
T3 sequence (P48549 1-501): T2 sequence (P48549 1-501)
The test is described as above. The note with it: 1 mM BaCl2 in extracellular solution. It counts as cell-based. On the procedure:
as §1, §2, §3

In test [4] the test system is KCNJ3 plus mutant KCNJ5 in 293T cells. The description is as above. In kind it is cell-based, human. The note with it: 1 mM BaCl2 in extracellular solution; mutant channels G151R, L168R, T158A. How it is done: as §1, §2, §3
Test [5] deals with KCNJ3/KCNJ5WT cotransfected with the dopamine D2 receptor in 293T cells (Homo sapiens, UniProt P14416). The following applies: 1 μM dopamine, current amplitudes at −100 mV, before vs after addition, n=4.
Chain of KCNJ3/KCNJ5WT cotransfected with the dopamine D2 receptor in 293T cells (P14416 whole entry): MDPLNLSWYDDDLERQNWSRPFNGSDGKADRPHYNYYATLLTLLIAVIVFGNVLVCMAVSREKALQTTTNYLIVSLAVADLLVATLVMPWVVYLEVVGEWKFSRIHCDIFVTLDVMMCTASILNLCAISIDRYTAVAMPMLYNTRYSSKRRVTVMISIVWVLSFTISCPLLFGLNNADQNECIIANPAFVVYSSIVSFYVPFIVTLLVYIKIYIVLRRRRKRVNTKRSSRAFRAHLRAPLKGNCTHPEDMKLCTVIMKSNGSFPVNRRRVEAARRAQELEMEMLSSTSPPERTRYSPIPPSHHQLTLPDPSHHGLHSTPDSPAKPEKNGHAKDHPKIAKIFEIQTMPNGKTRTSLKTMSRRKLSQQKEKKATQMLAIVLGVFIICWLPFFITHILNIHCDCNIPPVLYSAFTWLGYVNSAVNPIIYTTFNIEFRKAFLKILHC
Protocol: Representative whole-cell recordings of 293T cells cotransfected with KCNJ3/KCNJ5WT and the dopamine D2 receptor are shown. The pipette holding potential was 0 mV before clamping, and the cell was clamped from −100 to 60 mV with 20 mV increments before (left) and after (right) addition of 1 μM dopamine. The extracellular solution contained 140 mM NaCl, 5 mM KCl, 1.8 mM MgCl2, 1.8 mM CaCl2, and 10 mM HEPES, pH 7.4, while the intracellular solution contained 140 mM KCl, 4 mM MgCl2, 1 mM CaCl2, 1 mM EGTA, and 5 mM HEPES, pH 7.4. […] (FIG. 12B) Mean±SEM of current amplitudes measured at −100 mV before (control) and after addition of dopamine as in FIG. 12A (n=4).
293T cells were transfected with plasmid DNA using TransIT®-293 Transfection Reagent (Mirus) according to the manufacturer's instructions. Empty vector was used as a control. Cells were examined one day after transient transfection. Standard perforated whole-cell patch clamp recordings were performed on GFP-positive cells using an Axopatch 200A (Axon Instruments) amplifier. […]
Cells were cotransfected with 0.8 μg wild-type or mutant KCNJ5 and 0.5 μg KCNJ3 cDNA. […] Endogenous currents of 293T cells transfected with empty vector were measured from −100 to 60 mV. […] Data were analyzed by a combination of Axon Clampfit9.2 (Molecular Devices) and SigmaPlot (Jandel Scientific) programs. Data from 3-7 cells were analyzed for each construct. […]

SMILES strings stand for the structures. Where a chain is given by its changes, count along the chain named. “Also recorded” adds a separate entry of the source.

With `[Ba+2].[Cl-].[Cl-]` [BaCl2], the “inhibition of channel activity” value in test [1] is “inhibited WT channel activity”. Further, the “inhibition of current by Ba2+” value in test [2] is “inhibited; also recorded: inhibits the WT channel”; in test [3], “loss of inhibition”; in test [4], “variable inhibition”.
As for `Cl.NCCc1ccc(O)c(O)c1` [Dopamine, dopamine hydrochloride], the increase of current in test [5] is given as approximately 50%.

The values above are taken from patent US9982026B2, “Compositions and methods for assessing and treating adrenal diseases and disorders” (YALE UNIVERSITY, priority 2011, dated 2018).
